In PMC7808747, “Design, synthesis, and in vitro evaluation of BP-1-102 analogs with modified hydrophobic fragments for STAT3 inhibition” (Journal of Enzyme Inhibition and Medicinal Chemistry, 2021):

Tests used:
[1] = test system: prostate carcinoma DU-145; experiment: Resazurin cytotoxicity assay, DU-145
Experimental: (§1) Furthermore, the cytotoxicity of compound 6 was compared to BP-1-102 (1) in human glioblastoma cell lines U-87 and T98 in concentration range 0–80 µM for 24 h using the crystal violet assay.
(§2) The resazurin reduction assay[34] was performed as described previously. Briefly, cells were seeded onto a 96-well plate (2000 cells per well) in hexaplicate and the following day treated with the tested compounds (dissolved in DMSO as 50 mM stock) in a concentration range as indicated. After 24 h, 200 μl of culture medium of each well was exchanged for 100 μl of resazurin (stock 30 mg/ml; Sigma, St. Louis, MO) diluted 10 times in the culture medium, and the cells were incubated at 37 °C for 1–3 h. Reading of fluorescence was done using an Envision reader (PerkinElmer, Waltham, MA). Absolute values of fluorescence were related to the values of control/untreated cells. To estimate the cytotoxic concentration (half maximal inhibitory concentration, IC50), log-scale data were processed in GraphPad Prism software (La Jolla, CA) using nonlinear fit curve.

human glioblastoma U373 = experiment: Crystal violet assay, U373; conditions: 0–50 µM, 24 h
Experimental: (§3) The cells were treated with the compounds at concentrations 0, 5, 10, 20, and 50 µM for 24 h, and the cytotoxicity was estimated by the resazurin assay.
(§4) To determine cell viability by crystal violet assay, cells were seeded in 96-well plates at densities of 3000 (RPE-1), 5000 (U373 and T98-G), and 8000 (U-87 MG) cells per well. The next day the cells were treated with the tested compounds in triplicate in a concentration range as indicated. After 24 h, the cells in each well were washed twice with 150 µl PBS and then stained in 30 µl 0.5% w/v crystal violet in 20% methanol for 15 min. Plates were washed three times with double distilled H2O and left to dry overnight. Crystal violet was solubilised with 75 µl 0.2% Triton X-100 (Sigma, St. Louis, MO) in PBS for 15 min. Absorbance of crystal violet was measured at 595 nm using a microplate reader (Multiskan EX, Thermo Electron Corporation, Waltham, MA). Absorbance of the treated samples was expressed as a percentage of absorbance of untreated cells.

[2] = test system: mouse prostate TRAMP-C2 cancer cell line; experiment: MTT cytotoxicity assay, TRAMP-C2; type: cell-based; conditions: MTT assay; for cytotoxic effect in TRAMP-C2 (in words): 0–50 µM, 24 h
Experimental: (§5) Cells were seeded at the density of 2000 cells per well (96-well F microplates; Nunc, Roskilde, Denmark). The following day, the tested compounds were added. In the next 24 h, MTT (3-(4,5-dimethylthiazol-2-yl)-2,5-diphenyltetrazolium bromide) was added. After 6 h, DMF (dimethylformamide) was added, and after additional 24 h, absorbance was measured at 560 nm by a microplate reader.

[3] = test system: human immortalised retinal pigment epithelium RPE-1; experiment: Crystal violet assay, RPE-1; conditions: 0–50 µM, 24 h
Experimental: as §3, §4

osteosarcoma U2-OS = experiment: Resazurin cytotoxicity assay, U2-OS; conditions: 0–50 µM, 24 h
Experimental: as §1, §2

MDA-MB-231 cells = experiment: Annexin V / propidium iodide FACS, MDA-MB-231; type: cell-based, human; conditions: MDA-MB-231, 0, 5, 10, 20, 50 µM, 24 h
Experimental: (§6) Cells were harvested by centrifugation, resuspended in cold PBS and again centrifuged. Cell pellets were then resuspended in Annexin V Binding Buffer (ApoFlowEx FITC Kit, ED7044, Exbio, Vestec, Czech Republic), annexin V-APC and PI were added to the cell pellet and mixed. Cells were incubated in the dark at room temperature for 15 min. After the incubation, cells were centrifuged, resuspended in Annexin V Binding Buffer and analysed by flow cytometry. Five thousand cells per sample were measured by analysing annexin V and PI using a BD FACSVerse™ flow cytometer (BD Biosciences, Franklin Lakes, NJ). Data were analysed using FlowJo 10 software (FlowJo LLC, Ashland, OR), and the percentage of viable (annexin V-negative/PI-negative) cells relative to control was plotted.

[4] = test system: STAT3 Y705 phosphorylation (pY705); experiment: STAT3 pY705 immunoblotting, MDA-MB-231; type: cell-based, human; conditions: MDA-MB-231, micromolar concentration range, 4 h
Experimental: The cells were exposed to BP-1-102 (1), compounds 6 and 14 in a micromolar concentration range for 4 h, and then the levels of STAT3 pY705 and total STAT3 were probed by immunoblotting with specific antibodies. […] It can be concluded that both novel compounds 6 and 14 manifested inhibitory effects on receptor-mediated phosphorylation of Y705 of STAT3 in both human and mouse cell lines.
Cells were washed three times with PBS, harvested into 95 °C-heated Laemmli SDS sample lysis buffer (2% SDS, 50 mM Tris–Cl, 10% glycerol in double distilled H2O) and sonicated at 3 μm amplitude for 3 × 10 or 3 × 30 s with 10 or 30 s cooling intervals in a Soniprep 150 (MSE, London, UK) or Diagenode Bioruptor 300 (Diagenode, Liege, Belgium) for human and murine cell lines, respectively. Concentration of proteins was estimated by the Pierce^TM BCA Protein Assay (Thermo Scientific, Waltham, MA). DTT (100 mM) and 0.01% bromophenol blue were added to the lysates before separation by SDS-PAGE (10% gels were used). Equal protein amounts (40 or 35 μg for human or murine cell lines, respectively) were loaded into each well. Proteins were electrotransferred onto a nitrocellulose membrane (Amersham^TM Protran^TM 0.45 µm NC, GE Healthcare, Chalfont St Giles, UK) using wet transfer and detected by specific antibodies (at 4 °C overnight) combined with HRP-conjugated secondary antibodies. Peroxidase activity was detected by Amersham^TM ECL Western Blotting Detection Reagents (GE Healthcare, Chalfont St Giles, UK). GAPDH was used as a loading control.

TRAMP-C2 cells = experiment: Annexin V / propidium iodide FACS, TRAMP-C2; type: cell-based, mouse; conditions: TRAMP-C2, 24 h
Experimental: as §6

RPE-1 = experiment: Resazurin assay, RPE-1 (Table 2); type: cell-based; conditions: Homo sapiens, resazurin assay (footnote a), read-out: IC50±SD RPE-1
Experimental: The resazurin reduction assay[34] was performed as described previously[38]. Briefly, cells were seeded onto a 96-well plate (2000 cells per well) in hexaplicate and the following day treated with the tested compounds (dissolved in DMSO as 50 mM stock) in a concentration range as indicated. After 24 h, 200 μl of culture medium of each well was exchanged for 100 μl of resazurin (stock 30 mg/ml; Sigma, St. Louis, MO) diluted 10 times in the culture medium, and the cells were incubated at 37 °C for 1–3 h. Reading of fluorescence was done using an Envision reader (PerkinElmer, Waltham, MA). Absolute values of fluorescence were related to the values of control/untreated cells. To estimate the cytotoxic concentration (half maximal inhibitory concentration, IC50), log-scale data were processed in GraphPad Prism software (La Jolla, CA) using nonlinear fit curve.

[5] = test system: human breast adenocarcinoma MCF-7; experiment: Resazurin cytotoxicity assay, MCF-7
Experimental: as §1, §2

[6] = test system: mouse lung TC-1 cancer cell line; experiment: MTT cytotoxicity assay, TC-1; type: cell-based; conditions: for cytotoxic effect in TC-1 (in words): 0–50 µM, 24 h
Experimental: as §5

[7] = test system: human breast cancer MDA-MB-231 cell line; experiment: Resazurin cytotoxicity assay, MDA-MB-231; type: cell-based; conditions: resazurin assay; for cytotoxic effect in MDA-MB-231 (in words): 0, 5, 10, 20, 50 µM
Experimental: as §3
To estimate IC50 of 6 and 14, MDA-MB-231 cells were treated with 1 (0, 2, 5, 10, 15, 20, 25, 30, 40, and 50 µM), 6 (0, 5, 10, 20, 25, 30, 40, 50, 70, and 100 µM), and 14 (0, 20, 40, 50, 60, 70, 80, 100, 150, and 200 µM) for 24 h.
as §2

TC-1 cells = experiment: Annexin V / propidium iodide FACS, TC-1; conditions: TC-1, 24 h
Experimental: as §6

cervix carcinoma HeLa = experiment: Resazurin cytotoxicity assay, HeLa; conditions: 0–50 µM, 24 h
Experimental: as §1, §2

[8] = test system: pancreatic cancer Panc-1 cell lines; parameters: method as in PMID 20067773; conditions: previously published; cited from earlier work
[9] = test system: human breast cancer MDA-MB-231; parameters: method as in PMID 20067773; conditions: previously published; cited from earlier work

CN(CC(=O)N(Cc1ccc(C(F)(F)F)cc1)c1ccc(C(=O)O)c(O)c1)S(=O)(=O)c1c(F)c(F)c(F)c(F)c1F [Compound 14, 4-(N-(4-Trifluoromethylbenzyl)-2-(2,3,4,5,6-pentafluoro-N-methylphenylsulfonamido)acetamido)-2-hydroxybenzoic acid]
cytotoxic effect in DU-145 (in words) ([1]; 0–50 µM, 24 h, resazurin assay): weaker response
IC50 ([1]; Homo sapiens, DU-145, read-out: IC50±SD DU-145): 65.3 ± 7.8 µM
cytotoxic activity in U373 (in words) (human glioblastoma U373): concentration-dependent cytotoxic activity
cytotoxic effect in TRAMP-C2 (in words) [2]: cytotoxic activity comparable to BP-1-102 (1)
IC50 ([2]; Mus musculus, read-out: IC50±SD TRAMP-C2): 23.1 ± 10.5 µM
cytotoxic activity in RPE-1 (in words) [3]: concentration-dependent cytotoxic activity
cytotoxic effect in U2-OS (in words) (osteosarcoma U2-OS): comparable to BP-1-102 (1) and compound 6 at 50 µM, it was markedly decreased at lower concentrations
cell death induction (annexin V/PI, FACS) (MDA-MB-231 cells): cell death induction was confirmed
inhibition of constitutive STAT3 Y705 phosphorylation [4]: inhibited constitutive STAT3 phosphorylation
cytotoxicity by annexin V/PI staining and FACS (TRAMP-C2 cells): confirmed
IC50 (RPE-1): 39.7 ± 7.4 µM
cytotoxic effect in MCF-7 (in words) ([5]; 0–50 µM, 24 h, resazurin assay): comparable to BP-1-102 (1) and compound 6 at 50 µM, it was markedly decreased at lower concentrations
IC50 ([5]; Homo sapiens, MCF7, read-out: IC50±SD MCF-7): 47.3 ± 3.8 µM
cytotoxic effect in TC-1 (in words) [6]: cytotoxic activity comparable to BP-1-102 (1)
IC50 ([6]; Mus musculus, read-out: IC50±SD TC-1): 25.3 ± 6.6 µM
IC50 ([7]; Homo sapiens, MDA-MB-231, 24 h, 24 h, read-out: IC50±SD MDA-MB-231): 39.3 ± 6.3 µM
concentration from which the compound was cytotoxic ([7]; MDA-MB-231, 24 h): 20 µM
cytotoxicity by annexin V/PI staining and FACS (TC-1 cells): confirmed
cytotoxic effect in HeLa (in words) (cervix carcinoma HeLa): comparable to BP-1-102 (1) and compound 6 at 50 µM, it was markedly decreased at lower concentrations

Cc1ccc(S(=O)(=O)N(C)CC(=O)N(Cc2ccc(C3CCCCC3)cc2)c2ccc(C(=O)O)c(O)c2)cc1 [S3I-201.1066 (2), 4-(N-(4-Cyclohexylbenzyl)-2-(N-methyl-N-(p-toluenesulfonyl))acetamido)-2-hydroxybenzoic acid, reference compound]
effect on viability of Panc-1 [8]: reported to affect viability
cytotoxic effect in TRAMP-C2 (in words) [2]: did not demonstrate any cytotoxic effect
cytotoxic effect in TC-1 (in words) [6]: did not demonstrate any cytotoxic effect
cytotoxic effect in MDA-MB-231 (in words) ([7]; 24 h): did not show any observable cytotoxic effect
cytotoxic effect in MDA-MB-231 (in words) ([7]; 24 h, listed as 2): complete loss of cytotoxic activity
effect on viability of MDA-MB-231 [9]: reported to affect viability
